Assay results: patent US10106542B2, “Substituted 6,7-dihydropyrazolo[1,5-a]pyrazines as negative allosteric modulators of mGluR2 receptors” (Janssen Pharmaceutica NV, priority 2013, dated 2018)

Legend:
rats = experiment: Reversal of the effect of the mGluR2 PAM JNJ-42153605 on scopolamine-induced hyperlocomotion; type: in vivo; settings: Rattus norvegicus, 1 h, Route PO, test compound 60 min before recording, criterion total distance >1500 cm
Experimental: 2) Reversal of the Effect of the mGluR2 PAM JNJ-42153605 on Scopolamine-Induced Hyperlocomotion Apparatus
Motor activity was measured in microprocessor-based motor activity arenas (closed gray PVC cylinders with a height of 39 cm and a diameter of 31 cm). Each arena was placed on an infrared LED (8×8 LEDs) lit box (white PVC squared box; 40×40 cm^2; height 12.5 cm. An infrared-sensitive tube camera and a white light source were mounted to the ceiling above the observation chamber to track the animal. The total distance traveled (cm) was recorded and analyzed using the Noldus Ethovision XT Video Tracking System (Version 7.0.418; Noldus, Wageningen, The Netherlands). The intensity of the light within the activity cages (measured in the centre at the level of the floor) ranged between 4 and 8 LUX.
The rats were pretreated with test compound or vehicle at 60 min before the start of the activity recordings and placed into individual cages. The rats were challenged with JNJ-42153605 (3-(cyclopropylmethyl)-7-(4-phenylpiperidin-1-yl)-8-(trifluoromethyl)[1,2,4]triazolo[4,3-a]pyridine; WO2010/130424; Cid et al. J. Med. Chem. 2012, 55, 8770-8789) (20 mg/kg, i.v.) 30 min before the start of the activity recording combined with scopolamine (0.16 mg/kg, i.v.) just before the start of the activity measurements Immediately after the injection of scopolamine, the rats were placed into the activity monitors and total distance travelled over the first 30 min was measured.
Animals receiving the combination of JNJ-42153605 and scopolamine (n=433) almost always travelled a distance of less than 1500 cm (<1500 cm) (only 2.5% of the control rats travelled a distance of more than 1500 cm (>1500 cm)). On the other hand, animals challenged with scopolamine alone (n=215) always travelled a total distance of more than 1500 cm (>1500 cm) and almost always (in 95.8% of the rats) a distance of more than 4400 cm (>4400 cm). […] For reversal of the inhibitory effect of JNJ-42153605 on the scopolamine-induced hyperlocomotion, two all-or-none criteria were adopted: (1) reversal: total distance >1500 cm; (2) normalization: total distance >4400 cm.

human mGlu2 receptor = molecular target: T1, human mGlu2 receptor (Homo sapiens, UniProt Q14416); experiment: [35S]GTPγS binding assay (mGluR2 negative allosteric modulation); type: biochemical; settings: for IC50: membranes from CHO cells transfected with human mGlu2 receptor, glutamate 60 μM, pIC50 = −log IC50 (M), read-out: GTPγS - hmGluR2 anGT pIC50 (converted); for Emax: relative maximal effect: maximal % inhibition relative to the control glutamate response, read-out: GTPγS - hmGluR2 anGT Emax
T1 construct: expressed in transfected cells; host or cells: CHO cells (membrane preparation)
Summary of the method: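 Membranes from butyrate-stimulated CHO cells expressing human mGlu2; 7 μg protein in HEPES pH 7.4, 100 mM NaCl, 3 mM MgCl2, 10 μM GDP, 10 μg/ml saponin. Compound tested against EC80-equivalent glutamate; 0.1 nM [35S]GTPγS, 30 min, 30 °C; filtration, scintillation counting. Data as % of control glutamate response.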

Male Wiga Wistar rats = experiment: Reversal of LY-404039-induced decrease of palpebral opening in apomorphine-challenged rats; type: in vivo; settings: Rattus norvegicus, Route PO; reversal of LY-404039-induced decrease of palpebral opening (cumulative score >26) in apomorphine challenged rats
Experimental: 6) Reversal of LY-404039-Induced Decrease of Palpebral Opening in Apomorphine-Challenged Rats.
Male Wiga Wistar rats (Crl:WI; Charles River Germany; 220±40 g) were housed under standard laboratory conditions (21±2° C.; 50-65% relative humidity; light-dark cycle set at 12 h; lights on at 6.00 h) and fasted overnight prior to the start of the experiments (tap water remained available ad libitum). During the test period, they were housed in individual cages. The local Ethical Committee approved all studies in compliance with the Declaration of Helsinki. Palpebral opening was scored every 5 min over the first hour after injection of apomorphine (1.0 mg/kg, i.v.) in animals either pretreated or not pretreated with LY-404039 (2.5 mg/kg, s.c.) at 1 h prior to the apomorphine injection. The animals were also pretreated with test compound or solvent at a predefined interval before apomorphine challenge. The score system was: (5) exophthalmos, (4) wide open, (3) open for three-quarters, (2) half open, (1) open for one-quarter, (0) closed. The scores for palpebral opening were cumulated over the 60-min observation period. A cumulative palpebral opening score >26 was selected for drug-induced reversal of the LY-404039-induced decrease of palpebral opening (occurrence in 3.2% of control animals pretreated with LY-404039 (n=154) versus in 99.5% of control rats not pretreated with LY-404039 (n=6335)).
In animals receiving apomorphine alone the median palpebral opening is 43 whereas in animals receiving apomorphine and LY-404039, the median palpebral opening is 17.

Wiga rats = experiment: Reserpine interaction test in rats; type: in vivo, rat; settings: Rattus norvegicus, po; Time 60; reserpine 10 mg/kg SC; Wiga rats; read-out: ED50, reversal of reserpine-induced ptosis
Experimental: 4) Reserpine Interaction Test in Rats
It was investigated to what extent the mydriatic action of test compounds was sufficient to counteract the miosis induced by the monoamines-depleting agent reserpine (10 mg/kg; SC) in Wiga rats.
The effects are illustrated in FIG. 3. […] The reference mGlu2 NAMs RO-4995819 (40 mg/kg, p.o.), RO-4491533 (40 mg/kg, p.o.; 10 mg/kg, s.c.) and [CAS 579473-69-1]

[1] = test system: rat hippocampal brain slices; experiment: Reversal of mGluR2-agonism (LY-354740-depressed fEPSP) in hippocampal brain slices; type: cell-based
Excerpt: 7) Reversal of mGluR2-Agonism in Hippocampal Brain Slices Introduction
Electrophysiology recordings of field excitatory postsynaptic potentials (fEPSPs) in acute hippocampal brain slices represent a model for testing synaptic transmission and plasticity. The effect of Co. No. 1 on synaptic transmission and plasticity in dentate gyms synapses was investigated using this model.
Recordings of fEPSPs were made from hippocampal brain slices using a multi-electrode array (MEA) biochip, and 3-dimensional-(3D) tip electrodes, according to a standard protocol. These recordings were used to monitor glutamate-mediated synaptic transmission (FIG. 4).

T1 sequence (Q14416 19-872): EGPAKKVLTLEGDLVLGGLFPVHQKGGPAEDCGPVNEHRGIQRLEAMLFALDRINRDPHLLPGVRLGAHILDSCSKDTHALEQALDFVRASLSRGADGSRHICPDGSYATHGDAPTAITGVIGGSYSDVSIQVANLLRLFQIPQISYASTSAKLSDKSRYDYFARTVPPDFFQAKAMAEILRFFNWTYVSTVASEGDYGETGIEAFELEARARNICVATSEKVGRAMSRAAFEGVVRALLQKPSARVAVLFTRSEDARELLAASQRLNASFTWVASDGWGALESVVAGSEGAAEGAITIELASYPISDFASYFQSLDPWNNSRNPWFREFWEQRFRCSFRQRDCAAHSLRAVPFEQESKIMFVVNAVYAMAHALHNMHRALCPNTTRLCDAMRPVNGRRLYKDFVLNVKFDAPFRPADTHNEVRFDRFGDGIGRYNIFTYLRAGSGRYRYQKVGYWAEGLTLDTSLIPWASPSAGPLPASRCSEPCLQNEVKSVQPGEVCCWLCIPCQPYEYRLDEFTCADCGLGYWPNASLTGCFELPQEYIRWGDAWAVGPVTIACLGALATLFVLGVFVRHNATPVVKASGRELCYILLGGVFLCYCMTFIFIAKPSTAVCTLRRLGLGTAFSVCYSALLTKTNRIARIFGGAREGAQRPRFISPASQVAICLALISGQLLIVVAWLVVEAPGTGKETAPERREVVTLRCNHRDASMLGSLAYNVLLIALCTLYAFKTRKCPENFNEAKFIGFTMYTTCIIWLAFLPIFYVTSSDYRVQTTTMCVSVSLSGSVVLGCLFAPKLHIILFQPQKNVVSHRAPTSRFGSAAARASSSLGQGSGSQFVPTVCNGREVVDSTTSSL

IC50 (human mGlu2 receptor) [M] | Emax (human mGlu2 receptor) [%] | melting point [°C] | Structure (SMILES) | ED50 (rats) [mg/kg] | ED50 (Male Wiga Wistar rats) [mg/kg] | ED50 (Wiga rats) [mg/kg] | paired-pulse ratio (PPR) ([1]; 1 μM LY-354740) | depression of fEPSP ([1]; 1 μM, within 15 min of application, dentate gyrus) [%]
6.17e-09 | 105 | > 300 | CCNc1cc(-c2cnn3c2C(=O)N(c2ccc(C(F)(F)F)cc2)C[C@@H]3C)ccn1 [compound 44, (7S)-3-[2-(Ethylamino)-4-pyridyl]-7-methyl-5-[4-(trifluoromethyl)phenyl]-6,7-dihydropyrazolo[1,5-a]pyrazin-4-one] | ≥ 2.5 | 0.5 |  |  | 
4.37e-07 | 107 |  | CCOc1cc(N2C[C@@H](C)n3ncc(-c4ccnc(C)c4)c3C2=O)ccc1C(F)(F)F [compound 31] |  | ≥ 10 | 0.79 |  | 
5.75e-09 | 106 |  | CNc1cc(-c2cnn3c2C(=O)N(c2ccc(C(F)(F)F)cc2)C[C@@H]3C)ccn1 [compound 147, (7S)-7-Methyl-3-[2-(methylamino)-4-pyridyl]-5-[4-(trifluoromethyl)phenyl]-6,7-dihydropyrazolo[1,5-a]pyrazin-4-one] | 0.5 | 1.26 |  |  | 
5.75e-07 | 99 |  | CCOc1cc(N2CCn3ncc(-c4ccnc(C)c4)c3C2=O)ccc1C(F)(F)F [compound 33] |  | > 2.5 | 0.5 |  | 
6.31e-09 | 105 | 124.6 | CCc1cc(-c2cnn3c2C(=O)N(c2ccc(C(F)(F)F)cc2)C[C@@H]3C)ccn1 [compound 46, (7S)-3-(2-Ethyl-4-pyridyl)-7-methyl-5-[4-(trifluoromethyl)phenyl]-6,7-dihydropyrazolo[1,5-a]pyrazin-4-one] | ≥ 2.5 | 0.32 |  |  | 

The remaining lines, values behind:

Structure (SMILES) | IC50 (human mGlu2 receptor) [M] | Emax (human mGlu2 receptor) [%] | melting point [°C] | ED50 (rats) [mg/kg] | ED50 (Male Wiga Wistar rats) [mg/kg] | ED50 (Wiga rats) [mg/kg] | paired-pulse ratio (PPR) ([1]; 1 μM LY-354740) | depression of fEPSP ([1]; 1 μM, within 15 min of application, dentate gyrus) [%]
CCOc1cc(N2C[C@H](C)n3ncc(-c4ccnc(C)c4)c3C2=O)ccc1C(F)(F)F [compound 8] | 5.89e-09 | 105 |  | 5 | 5 |  |  | 
Cc1cc(-c2cnn3c2C(=O)N(c2ccc(Cl)cc2)C[C@@H]3C)ccn1 [compound 15] | 2.63e-08 | 103 |  | 1.26 | 11.2 |  |  | 
C[C@H]1CN(c2ccc(C(F)(F)F)cc2)C(=O)c2c(-c3ccncc3)cnn21 [compound 2, (7S)-7-Methyl-3-pyridin-4-yl-5-[4-(trifluoromethyl)phenyl]-6,7-dihydropyrazolo [1,5-a]pyrazin-4(5H)-one] |  |  |  | 1.26 | 0.5 | 0.32 |  | 
N[C@@]1(C(=O)O)CC[C@H]2[C@H](C(=O)O)[C@H]21 [LY-354740, reference compound] |  |  |  |  |  |  | increase of the paired-pulse ratio | 50
COc1cc(-c2cnn3c2C(=O)N(c2ccc(C(F)(F)F)cc2)C[C@@H]3C)ccn1 [compound 45, (7S)-3-(2-Methoxy-4-pyridyl)-7-methyl-5-[4-(trifluoromethyl)phenyl]-6,7-dihydropyrazolo[1,5-a]pyrazin-4-one] |  |  |  | 1.26 | 0.79 |  |  | 
